Measured values: patent US20240383886A1, “Protein Tyrosine Phosphatase Degraders and Methods of Use Thereof” (CALICO LIFE SCIENCES LLC, priority 2019, published 2024)

Columns and labels:
PTPN2 [1] = target: T1, PTPN2 (Homo sapiens, UniProt P17706); test: HiBiT-Degradation 293T.109 PTPN2 (Nano-Glo HiBiT Lytic Assay); type: cell-based; settings: 293T.109 (HiBiT-PTPN2) cells, 24.0 hours
T1 construct: expressed in transfected cells; host or cells: 293T (293T.109 HiBiT-PTPN2 line; parental 293T WT from ATCC)
T1 sequence (P17706 1-415): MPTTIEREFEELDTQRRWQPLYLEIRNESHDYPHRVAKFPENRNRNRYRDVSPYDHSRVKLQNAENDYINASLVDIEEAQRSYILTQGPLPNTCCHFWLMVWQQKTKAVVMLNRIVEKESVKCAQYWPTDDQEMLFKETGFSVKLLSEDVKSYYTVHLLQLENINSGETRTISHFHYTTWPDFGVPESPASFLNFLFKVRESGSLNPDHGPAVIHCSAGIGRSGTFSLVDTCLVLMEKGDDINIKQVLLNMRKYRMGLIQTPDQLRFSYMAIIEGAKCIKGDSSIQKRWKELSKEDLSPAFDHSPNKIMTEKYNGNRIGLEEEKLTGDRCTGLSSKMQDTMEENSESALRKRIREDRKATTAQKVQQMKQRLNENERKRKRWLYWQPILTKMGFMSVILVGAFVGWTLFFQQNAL
Description: Dulbecco's modified Eagle medium (DMEM) without phenol red and fetal bovine serum (FBS) were purchased from Gibco (Grand Island, NY, USA). Nano-Glo® HiBIT Lytic Assay System was purchased from Promega (Madison, WI, USA). 293T.109 (HiBiT-PTPN2) cell line was generated by ectopically expressing PTPN2 with N-terminal HiBiT fusion tag in 293T WT cell line purchased from ATCC (Manassas, VA, USA). Cell culture flasks and 384-well microplates were acquired from VWR (Radnor, PA, USA).
PTPN2 degradation was determined based on quantification of luminescent signal using Nano-Glo® HiBIT Lytic Assay kit. Test compounds were added to the 384-well plate from a top concentration of 10 μM with 11 points, half log titration in duplicates. 293T.109 cells were added into 384-well plates at a cell density of 5000 cells per well. The plates were kept at 37° C. with 5% CO2 for 24 hours. The cells treated in the absence of the test compound were the negative control and the cells without Nano-Glo® HiBiT Lytic reagent were the positive control. After 24-hour incubation, Nano-Glo® HiBIT Lytic Assay reagents were added to the cells. Luminescence was acquired on EnVision™ Multilabel Reader (PerkinElmer, Santa Clara, CA, USA).

PTPN2 [2] = test: HiBiT-Degradation B16F10.4 PTPN2; type: cell-based; settings: B16F10.4 cells, 24.0 hours

DC50 (PTPN2 [1])	DC50 (PTPN2 [2])	Structure (SMILES)
50 to 200 nM	50 to 200 nM	Cn1c(=O)n(C2CCC(=O)NC2=O)c2ccc([C@H]3CC[C@@H](CNC(=O)c4ccc5c(F)c(N6CC(=O)NS6(=O)=O)c(O)cc5c4)CC3)cc21 (single isomer, unassigned) [Example 75]
10 to 50 nM	50 to 200 nM	Cn1c(=O)n(C2CCC(=O)NC2=O)c2ccc([C@H]3CC[C@H](CNC(=O)c4ccc5c(F)c(N6CC(=O)NS6(=O)=O)c(O)cc5c4)CC3)cc21 (single isomer, unassigned) [Example 76]
10 to 50 nM	10 to 50 nM	Cn1c(=O)n(C2CCC(=O)NC2=O)c2ccc([C@H]3CC[C@@H](CC(=O)Nc4ccc5c(F)c(N6CC(=O)NS6(=O)=O)c(O)cc5c4)CC3)cc21 (single isomer, unassigned) [Example 81a, N-(6-(1,1-dioxido-4-oxo-1,2,5-thiadiazolidin-2-yl)-5-fluoro-7-hydroxynaphthalen-2-yl)-2-((1s,4s)-4-(1-(2,6-dioxopiperidin-3-yl)-3-methyl-2-oxo-2,3-dihydro-1H-benzo[d]imidazol-5-yl)cyclohexyl)acetamide]
10 to 50 nM	200 to 1000 nM	Cn1c(=O)n(C2CCC(=O)NC2=O)c2ccc([C@H]3CC[C@H](CC(=O)Nc4ccc5c(F)c(N6CC(=O)NS6(=O)=O)c(O)cc5c4)CC3)cc21 (single isomer, unassigned) [Example 81b, N-(6-(1,1-dioxido-4-oxo-1,2,5-thiadiazolidin-2-yl)-5-fluoro-7-hydroxynaphthalen-2-yl)-2-((1r,4r)-4-(1-(2,6-dioxopiperidin-3-yl)-3-methyl-2-oxo-2,3-dihydro-1H-benzo[d]imidazol-5-yl)cyclohexyl)acetamide]
10 to 50 nM	200 to 1000 nM	Cn1nc(C2CCC(=O)NC2=O)c2ccc([C@H]3CC[C@H](CC(=O)Nc4ccc5c(F)c(N6CC(=O)NS6(=O)=O)c(O)cc5c4)CC3)cc21 (single isomer, unassigned) [Example 179, N-(6-(1,1-dioxido-4-oxo-1,2,5-thiadiazolidin-2-yl)-5-fluoro-7-hydroxynaphthalen-2-yl)-2-((trans)-4-(3-(2,6-dioxopiperidin-3-yl)-1-methyl-1H-indazol-6-yl)cyclohexyl)acetamide]
200 to 1000 nM	≥ 1000 nM	O=C1CCC(N2C(=O)c3cccc(NCC(=O)N4CCC(C(=O)NCCOc5ccc6cc(O)c(N7CC(=O)NS7(=O)=O)c(F)c6c5)CC4)c3C2=O)C(=O)N1 (stereo not shown) [Example 1, N-(2-((7-(1,1-dioxido-4-oxo-1,2,5-thiadiazolidin-2-yl)-8-fluoro-6-hydroxynaphthalen-2-yl)oxy)ethyl)-1-((2-(2,6-dioxopiperidin-3-yl)-1,3-dioxoisoindolin-4-yl)glycyl)piperidine-4-carboxamide]
200 to 1000 nM	200 to 1000 nM	O=C1CCC(N2Cc3c(NCC(=O)N4CCC(C(=O)NCCOc5ccc6cc(O)c(N7CC(=O)NS7(=O)=O)c(F)c6c5)CC4)cccc3C2=O)C(=O)N1 (stereo not shown) [Example 2, N-(2-((7-(1,1-dioxido-4-oxo-1,2,5-thiadiazolidin-2-yl)-8-fluoro-6-hydroxynaphthalen-2-yl)oxy)ethyl)-1-((2-(2,6-dioxopiperidin-3-yl)-1-oxoisoindolin-4-yl)glycyl)piperidine-4-carboxamide]
50 to 200 nM	200 to 1000 nM	O=C1CCC(N2Cc3c(OCC(=O)N4CCC(C(=O)NCCOc5ccc6cc(O)c(N7CC(=O)NS7(=O)=O)c(F)c6c5)CC4)cccc3C2=O)C(=O)N1 (stereo not shown) [Example 3, 1-[2-[2-(2,6-dioxo-3-piperidyl)-1-oxo-isoindolin-4-yl]oxyacetyl]-N-[2-[[8-fluoro-6-hydroxy-7-(1,1,4-trioxo-1,2,5-thiadiazolidin-2-yl)-2-naphthyl]oxy]ethyl]piperidine-4-carboxamide]
50 to 200 nM	≥ 1000 nM	Cn1c(=O)n(C2CCC(=O)NC2=O)c2ccc(C3CCN(CC(=O)NCCOc4ccc5cc(O)c(N6CC(=O)NS6(=O)=O)c(F)c5c4)CC3)cc21 (stereo not shown) [Example 4, N-(2-((7-(1,1-dioxido-4-oxo-1,2,5-thiadiazolidin-2-yl)-8-fluoro-6-hydroxynaphthalen-2-yl)oxy)ethyl)-2-(4-(1-(2,6-dioxopiperidin-3-yl)-3-methyl-2-oxo-2,3-dihydro-1H-benzo[d]imidazol-5-yl)piperidin-1-yl)acetamide]
50 to 200 nM	≥ 1000 nM	O=C(CN1CCC(c2ccc3c(c2)oc(=O)n3C2CCC(=O)NC2=O)CC1)NCCOc1ccc2cc(O)c(N3CC(=O)NS3(=O)=O)c(F)c2c1 (stereo not shown) [Example 5, 2-[4-[3-(2,6-dioxo-3-piperidyl)-2-oxo-1,3-benzoxazol-6-yl]-1-piperidyl]-N-[2-[[8-fluoro-6-hydroxy-7-(1,1,4-trioxo-1,2,5-thiadiazolidin-2-yl)-2-naphthyl]oxy]ethyl]acetamide]
50 to 200 nM	≥ 1000 nM	Cn1c(=O)n(C2CCC(=O)NC2=O)c2ccc(C3CCN(CCC(=O)NCCOc4ccc5cc(O)c(N6CC(=O)NS6(=O)=O)c(F)c5c4)CC3)cc21 (stereo not shown) [Example 6, N-(2-((7-(1,1-dioxido-4-oxo-1,2,5-thiadiazolidin-2-yl)-8-fluoro-6-hydroxynaphthalen-2-yl)oxy)ethyl)-3-(4-(1-(2,6-dioxopiperidin-3-yl)-3-methyl-2-oxo-2,3-dihydro-1H-benzo[d]imidazol-5-yl)piperidin-1-yl)propanamide]
10 to 50 nM	10 to 50 nM	O=C(CN1CCC(c2ccc3c4c(cccc24)C(=O)N3C2CCC(=O)NC2=O)CC1)NCCOc1ccc2cc(O)c(N3CC(=O)NS3(=O)=O)c(F)c2c1 (stereo not shown) [Example 7, N-(2-((7-(1,1-dioxido-4-oxo-1,2,5-thiadiazolidin-2-yl)-8-fluoro-6-hydroxynaphthalen-2-yl)oxy)ethyl)-2-(4-(1-(2,6-dioxopiperidin-3-yl)-2-oxo-1,2-dihydrobenzo[cd]indol-6-yl)piperidin-1-yl)acetamide]
10 to 50 nM	50 to 200 nM	Cn1nc(C2CCC(=O)NC2=O)c2ccc(C3CCN(CC(=O)NCCOc4ccc5cc(O)c(N6CC(=O)NS6(=O)=O)c(F)c5c4)CC3)cc21 (stereo not shown) [Example 8, 2-[4-[3-(2,6-dioxo-3-piperidyl)-1-methyl-indazol-6-yl]-1-piperidyl]-N-[2-[[8-fluoro-6-hydroxy-7-(1,1,4-trioxo-1,2,5-thiadiazolidin-2-yl)-2-naphthyl]oxy]ethyl]acetamide]
50 to 200 nM	200 to 1000 nM	Cn1c(=O)n(C2CCC(=O)NC2=O)c2cccc(OC3CCN(CC(=O)NCCOc4ccc5cc(O)c(N6CC(=O)NS6(=O)=O)c(F)c5c4)CC3)c21 (stereo not shown) [Example 9, 2-[4-[1-(2,6-dioxo-3-piperidyl)-3-methyl-2-oxo-benzimidazol-4-yl]oxy-1-piperidyl]-N-[2-[[8-fluoro-6-hydroxy-7-(1,1,4-trioxo-1,2,5-thiadiazolidin-2-yl)-2-naphthyl]oxy]ethyl]acetamide]
≥ 1000 nM	–	O=C(CCCCCn1cc(CNc2cccc3c2C(=O)N(C2CCC(=O)NC2=O)C3=O)nn1)NCCOc1ccc2cc(O)c(N3CC(=O)NS3(=O)=O)c(Cl)c2c1 (stereo not shown) [Example 49]
≥ 1000 nM	–	O=C(CCOCCn1cc(CNc2cccc3c2C(=O)N(C2CCC(=O)NC2=O)C3=O)nn1)NCCOc1ccc2cc(O)c(N3CC(=O)NS3(=O)=O)cc2c1 (stereo not shown) [Example 50]
≥ 1000 nM	–	O=C(CCCCCn1cc(CNc2cccc3c2C(=O)N(C2CCC(=O)NC2=O)C3=O)nn1)NCCOc1ccc2cc(O)c(N3CC(=O)NS3(=O)=O)cc2c1 (stereo not shown) [Example 51]
